Structures can show the parent of a compound that is named as a salt.
Columns and labels:
[1] = test system: mouse fibroblast (L929); assay: Cytotoxicity, L929 fibroblasts; assay type: cell-based; conditions: mouse fibroblast L929
Procedure: (§1) IC50 values of known antileishmanials and the amine-containing flavonoid monomers of the present invention to promastigotes (L. amazonensis LV78, L major FV1, L. donovani HU3, L. donovani 39), macrophages (Raw 264.7 and PEM) and mouse fibroblast (L929) were determined. The anti-promastigotes activities and cytotoxicity of the amine-containing flavonoid monomers of the invention are shown in Table 1.

[2] = test system: L. donovani HU3 promastigotes; assay: Anti-promastigote activity (MTS assay), L. donovani HU3; assay type: cell-based; conditions: 72 hours
In short: (§2)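 Promastigotes (1×10^5 per well) in Schneider's medium pH 6.9 with 10% FBS, exposed to serial compound concentrations for 72 h at 27 °C. Viability by MTS/PMS reduction over 4 h, OD 490 nm; IC50 derived.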

[3] = test system: L. amazonensis LV78 promastigotes; assay: Anti-promastigote activity (MTS assay), L. amazonensis LV78; assay type: cell-based; conditions: 72 hours
In short: as §2

[4] = test system: L. donovani HU3 amastigotes; assay: Anti-amastigote activity in infected PEM, L. donovani HU3; assay type: cell-based; conditions: infected PEM, 3 days, Giemsa, SSG-sensitive
In short: (§3)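 Read-out was Giemsa-stained counts of amastigotes per 100 macrophages, used for IC50, after 72 h drug exposure at 37 °C of mouse peritoneal macrophages previously infected with late-log promastigotes.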

[5] = test system: L. amazonensis LV78 amastigotes; assay: Anti-amastigote activity in infected PEM, L. amazonensis LV78; assay type: cell-based; conditions: for IC50: infected PEM, 3 days, Giemsa
In short: as §3

[6] = test system: L. donovani Ld39 amastigotes (SSG-resistant); assay: Anti-amastigote activity in infected PEM, L. donovani Ld39; assay type: cell-based; conditions: Leishmania donovani, 72 h; infected PEM, 3 days, Giemsa; SSG-resistant
In short: as §3

[7] = test system: L. braziliensis UA847 amastigotes; assay: Anti-amastigote activity in infected PEM, L. braziliensis UA847; assay type: cell-based; conditions: Leishmania braziliensis, 72 h, 3 days, Giemsa, read-out: Anti-amastigote activity IC50, L. baziliensis UA847
Procedure: (§4) Mouse peritoneal elicited macrophages (PEM) were obtained as previously described (2). A round cover slip (12 mm in diameter) was placed into each well of 24-well culture plate. Mouse PEM were resuspended in supplemented DMEM media containing 10% heat inactivated FBS (v/v), 100 U/mL penicillin and 100 μg/mL streptomycin and seeded into each well at a cell density of 1×10^5 cells per 500 μL. Macrophages were allowed to attach overnight. Non-adherent cells were removed by gentle washing with un-supplemented DMEM media twice. Adherent macrophages were infected with late-log promastigotes at a parasite-to-macrophage ratio of 20:1 overnight at 37° C. with 5% CO2. Non-internalized promastigotes were removed by washing twice with un-supplemented DMEM media. Infected macrophages were further incubated in 500 μL of supplemented DMEM media in the presence or absence of FM for 72 hours at 37° C. After incubation, cover slips were stained with Giemsa and the percentage of macrophages infected and number of amastigotes per 100 macrophages was enumerated.
(§5) PEM cells were infected with late-log promastigotes (L. amazonensis LV78, L. braziliensis UA847, L. donovani HU3, L. donovani 39) for 24 hr at 37° C. Infected macrophages were then treated with various antileishmanials and incubated for 3 days at 37° C. After 3 days, the cover slips were stained with Giemsa. The number of amastigotes per 100 macrophages were determined and used to calculate IC50 values.

[8] = Preliminary oral bioavailability, single time point plasma concentration oral vs i.v.; assay type: in vivo, Balb/c mice; conditions: hydrochloride salt in saline, 30 minutes, dose-normalized
Procedure: FM01.HCl and FM05.HCl were administered to Balb/c mice via intravenous and passive oral administration. The blood plasma was collected at 30 minutes for LC-MSMS analysis and used for preliminary oral bioavailability screening. The corresponding plasma concentration was normalized by the administered dose for oral bioavailability calculation.
FM01 and FM05 hydrochloride salt was dissolved in saline and administered to Balb/c mice either orally or i.v. Plasma level of FM01 and FM05 was determined 30 minutes later by LC-MS and their identity confirmed by LC-MS/MS. Plasma concentration from oral feeding was divided by that obtained from i.v. administration. […] In these preliminary studies, the ratios were 45% for FM01 and 64% for FM05 (FIG. 3).

[9] = test system: L. donovani Ld39 promastigotes; assay: Anti-promastigote activity (MTS assay), L. donovani Ld39; assay type: cell-based; conditions: 72 hours
In short: as §2

[10] = Cytotoxicity, L929 fibroblasts; assay type: cell-based, mouse; conditions: mouse
Procedure: as §1

[11] = test system: L. major FV1 promastigotes; assay: Anti-promastigote activity (MTS assay), L. major FV1; assay type: cell-based; conditions: 72 hours
In short: as §2

[12] = test system: promastigotes (L. amazonensis LV78, L major FV1, L. donovani HU3, L. donovani 39); assay: Anti-promastigote activity, strain not given; assay type: cell-based; conditions: Leishmania amazonensis; strain not specified; read-out: IC50 against promastigotes
Procedure: Anti-promastigote activity was determined according to previous procedures (1) by Cell Titer 96® Aqueous Assay (Promega) that employed a tetrazolium compound. Promastigotes were seeded into 96-well flat bottom microtiter plate at 1×10^5 cells per well in a final volume of 100 μL medium and incubated with a series of concentrations of synthetic FM. Parasites were incubated at 27° C. for 72 hours. After 72 hours of incubation, 10 μL of MTS:PMS mixture [MTS:2-(4,5-Dimethylthiazol-2-yl-)-5-[3-(carboxymethoxy)phenyl]-2-(4-sulfophenyl)-2H-tetrazolium); PMS: phenazine methosulfate both purchased from Sigma] was added into each well of microtiter plate. The plate was then incubated at 27° C. for 4 hours for color development. After 4 hours of incubation, the OD values were determined at 490 nm using automatic microtiter plate reader (Bio-Rad).
as §1

[13] = test system: amastigotes (L. amazonensis LV78, L. braziliensis UA847, L. donovani HU3, L. donovani 39); assay: Anti-amastigote activity, strain not given; assay type: cell-based; conditions: strain not specified; visceral and cutaneous Leishmania; read-out: IC50 against amastigotes
Procedure: as §4, §5

[14] = test system: peritoneal elicited macrophages (PEM); assay: Cytotoxicity, peritoneal elicited macrophages (PEM); assay type: cell-based, mouse

## COc1ccnc(CN(CCOCCOc2ccc(-c3cc(=O)c4ccccc4o3)cc2)Cc2nccc(OC)c2OC)c1OC [FM09aHCl]
[1]
  IC50: 12.9 ± 2.4 µM
[2]
  IC50: 0.99 ± 0.19 µM
[3]
  IC50: 0.77 ± 0.19 µM
[4]
  IC50: 0.5 ± 0.02 µM
[5]
  IC50: 0.35 ± 0.01 µM

## O=c1cc(-c2ccc(OCCN3CCN(Cc4ccncc4)CC3)cc2)oc2ccccc12 [FM01, 2-(4-(2-(4-(pyridin-4-ylmethyl)piperazin-1-yl)ethoxy)phenyl)-4H-chromen-4-one]
[6]
  IC50: > 10 µM
[7]
  IC50: 8.4 µM
[8]
  Ratio of plasma concentration from oral feeding to i.v. administration: 45%
[9]; Leishmania donovani
  IC50: 0.7 ± 0.1 µM
[10]
  IC50: > 33 µM
[2]; Leishmania donovani
  IC50: 1.2 ± 0.3 µM
[3]; Leishmania amazonensis
  IC50: 6 ± 1.8 µM
[4]; Leishmania donovani, 72 h
  IC50: > 9 µM
[5]; IC50 RAW264.7 over IC50 L. amazonensis LV78 amastigotes
  Selective index (a)/(b): 28.8
[5]; Leishmania amazonensis, 72 h
  IC50: 1.8 ± 0.6 µM
[11]; Leishmania major
  IC50: 5.6 ± 1 µM
[12]
  IC50: < 5 µM
[13]
  IC50: < 5 µM

## O=c1cc(-c2ccc(OCCN3CCN(Cc4ccncc4)CC3)cc2)oc2ccccc12 [FM01.HCl]
[9]
  IC50: 1.3 ± 0.3 µM
[1]
  IC50: 33.7 µM
[3]
  IC50: 12.6 ± 0.9 µM
[5]
  IC50: > 9 µM
[11]
  IC50: 6.7 ± 1.9 µM
[14]
  IC50: 55.9 µM

— patent US10111854B2, “Synthesis and use of amine-containing flavonoids as potent anti-leishmanial agents” (The Hong Kong Polytechnic University, priority 2014, dated 2018)
